How the values were obtained:
[1] = system: Mouse FL38B hepatocyte cells; assay: Lipid droplet accumulation in oleic acid-treated mouse hepatocyte cells; format: cell-based
Procedure: FIGS. 37A-E: Comparison of various ASOs and vitamin E on lipid droplet accumulation in mouse FL38B hepatocytes. (FIG. 37A) Immunocytochemical analysis of mouse FL38B hepatocyte cells incubated for 48 h with oleic acid in the presence of either fluorescent mouse mASO-1, mASO-2 or mASO-7 (not shown) or α-tocopherol (vitamin E) (arrows pointing towards transfected cells, red staining indicate lipid droplets). (FIG. 37B) Quantitative analysis of results expressed in bar graph. (FIGS. 37C-D). The effect of eight ASOs on Pcsk7 mRNA levels as measured by quantitative PCR (qPCR). The experiment was repeated two independent times. *p<0.05 (FIG. 37A) The effect of mASO-1, mASO-2, mASO-7 and Vitamin E on reduction of accumulation of fluorescent triglycerides in cells as estimated by FACS measurement of lipid droplets (LD) by LipidTox™ staining. (FIG. 37E). modifications of ASO by trivalent linkage to N-acetyl-Galactosamine ([…]).
The effect of eight ASOs on Pcsk7 mRNA levels was measured by quantitative PCR (qPCR) (FIG. 37C). Mouse FL38B hepatocyte cells were incubated for 48 h with oleic acid in the presence of either fluorescent (green) mouse mASO-1, mASO-7 or α-tocopherol (vitamin E). […] (FIGS. 37B-37D). Mouse FL38B hepatocyte cells were plated on day 1, ASOs were added on day 2, the media was replaced on day 3 and RNA was extracted on day 4. […]

Pcsk7 mRNA = assay: Liver Pcsk7 mRNA after the recovery period following HFFC diet; format: in vivo, mouse; details: after 8 weeks recovery, 500 IU/kg of food
Procedure: The dose-dependent efficacy of these ASOs following their subcutaneous injection in mice was tested for the decrease in total liver Pcsk7 mRNA at 2, 5, 10 and 15 mg/kg, twice a week for 1 month. […] Mice were next injected with 5 mg/kg of either GalNac-ASO7 and GalNac-ASO-2, twice a week for 1 month, whereupon the livers and their partially purified primary hepatocytes were analyzed by RT-qPCR for the levels of Pcsk7 mRNA. […] A program was then set up whereby 8 weeks-old mice were fed a HFFC diet for 16 weeks, after which they were switched to a regular chow diet for another 8 weeks recovery period. The mice were divided into 3 groups of 12 mice each and treated as follows starting from the beginning of the recovery period (FIG. 38C): (1) a control non-treated group; (2) two GalNac-ASO groups subcutaneously injected twice a week for 8 weeks with either GalNac-ASO7 or GalNac-ASO2 at 5 mg/kg; (3) a group fed a chow diet containing Vitamin E (α-tocopherol) at 500 IU/kg of food.
The inventors next compared the levels of Pcsk7 mRNAs in the livers of mice after the 8 weeks recovery period that followed the 16-weeks HFFC diet.

mice fed a HFFC diet = assay: Liver lipid droplets and histopathology in mice recovering from HFFC diet; format: in vivo, mouse; details: after 8 weeks recovery and treatment
Description: FIGS. 39A-D (FIG. 39A) Upper panels—Oil red 0 staining of liver sections control (no treatment), and ASO-2, ASO-7 and α-tocopherol treated mice. Lower panels; Total area of LDs, mean area of LD and LD number in non treated mice or in mice treated with GalNac-ASO-7, GalNac-ASO-2 or α-tocopherol. (FIG. 39B) Liver morphology and fat accumulation measured in terms of liver inflammation, hepatocyte ballooning and steatosis grade in non treated mice or in mice treated with GalNac-ASO-7, GalNac-ASO-2 or α-tocopherol. (FIG. 39C) Extent of fibrosis measured by Sirius red staining in non treated mice or in mice treated with GalNac-ASO-7, GalNac-ASO-2 or α-tocopherol. […]
Eight ASOs against mouse Pcsk7 were tested in mouse FL38B hepatocytes and the best ones, namely ASO2 and ASO7, were modified (FIG. 37D) with covalent linkages to trivalent N-acetyl-Galactosamine (GalNac) residues (FIG. 37E). […] Mice were next injected with 5 mg/kg of either GalNac-ASO7 and GalNac-ASO-2, twice a week for 1 month, whereupon the livers and their partially purified primary hepatocytes were analyzed by RT-qPCR for the levels of Pcsk7 mRNA. […]
The reduction of LD accumulation in mice treated with GalNac-ASO-7 or GalNac-ASO-2 compared to α-tocopherol was next analyzed (FIG. 39A).

## Cc1c(C)c2c(c(C)c1O)CC[C@@](C)(CCC[C@H](C)CCC[C@H](C)CCCC(C)C)O2 [α-tocopherol]
[1]; 48 h with oleic acid, immunocytochemistry
  accumulation of lipid droplets: significantly reduced
[1]; FACS measurement of lipid droplets by LipidTox staining
  accumulation of fluorescent triglycerides in cells: best reduction
Pcsk7 mRNA
  increase in Pcsk7 mRNA levels: 33%
Mice fed a HFFC diet
  reduced total area, more abundant but smaller LDs, relative to GalNac-ASO7: significantly less
